Source: PubChem BioAssay (NCI)
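These data come from cells grown in 96-well plates and exposed to compound for 48 hours at five concentrations. At the TGI there is no net growth.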

Assays:
Assay in all cases: NCI anticancer screen, dose series, 48 h
[1] = tested on: HCT-15 colon
[2] = tested on: HS 578T breast
[3] = tested on: LOX IMVI melanoma
[4] = tested on: OVCAR-3 ovarian
[5] = tested on: OVCAR-4 ovarian
[6] = tested on: SF-295 CNS
[7] = tested on: SK-MEL-2 melanoma
[8] = tested on: SNB-19 CNS
[9] = tested on: SNB-75 CNS
[10] = tested on: UO-31 renal
[11] = tested on: CCRF-CEM leukemia
[12] = tested on: HCT-116 colon
[13] = tested on: PC-3 prostate

SMILES	TGI [1]	TGI [2]	TGI [3]	TGI [4]	TGI [5]	TGI [6]	TGI [7]	TGI [8]	TGI [9]	TGI [10]	TGI [11]	TGI [12]	TGI [13]
N#Cc1sc2c(c1O)c(=O)n(-c1ccccc1)c(=S)n2-c1ccccc1	> 100 µM	> 100 µM	> 100 µM	> 100 µM	> 100 µM	> 100 µM	> 100 µM	> 100 µM	> 100 µM	> 100 µM	–	–	–
COc1ccc2c(c1)CCC(OS(=O)(=O)CC13CCC(CC1=O)C3(C)C)C2=O (stereo unspecified)	92 µM	–	32.1 µM	66.9 µM	> 100 µM	–	55.8 µM	> 100 µM	> 100 µM	> 100 µM	> 100 µM	53.3 µM	–
CN(C)Cc1cc(N=Nc2ccc(Cl)cc2)ccc1OC(=O)c1ccccc1	29.1 µM	46.9 µM	27.6 µM	32.3 µM	28.5 µM	28.7 µM	–	29.8 µM	38.7 µM	25.2 µM	38.8 µM	29.9 µM	29 µM
CC(CCCOC(c1ccccc1)(c1ccccc1)c1ccccc1)OC(=O)Nc1ccccc1 (stereo unspecified)	27.9 µM	–	25.3 µM	26.9 µM	25 µM	25.3 µM	–	–	27.9 µM	23.7 µM	33.1 µM	23 µM	–
CC(=O)C1=CCC2c3[nH]c4ccccc4c3CCN2C1 (stereo unspecified)	> 100 µM	–	> 100 µM	> 100 µM	> 100 µM	> 100 µM	> 100 µM	> 100 µM	88.3 µM	> 100 µM	> 100 µM	> 100 µM	–
CCCCNC(=S)/N=C/c1c(O)c2ccccc2[nH]c1=O	> 10 µM	–	–	> 10 µM	> 10 µM	> 10 µM	–	> 10 µM	–	> 10 µM	> 10 µM	–	> 10 µM
CC(C)(C)C1CCC2c3c([nH]c4ccccc34)C3C(=O)N(c4ccc5c(c4)C(=O)c4ccccc4C5=O)C(=O)C3C2C1 (stereo unspecified)	> 100 µM	> 100 µM	> 100 µM	> 100 µM	> 100 µM	> 100 µM	> 100 µM	> 100 µM	–	–	> 100 µM	> 100 µM	> 100 µM
Cc1ccc(S(=O)(=O)c2c(N)n(CCN(C)C)c3nc4ccccc4nc23)cc1	> 100 µM	–	–	> 100 µM	> 100 µM	> 100 µM	> 100 µM	> 100 µM	> 100 µM	> 100 µM	> 100 µM	> 100 µM	–
